Legend:
MCF-7 (breast cancer) = experiment: MTT cell viability assay, MCF-7; type: cell-based, human; conditions: Homo sapiens, MCF7, 72 h, MTT assay, 72 h of incubation
Procedure: (§1) Compounds 20–162 were evaluated in vitro for their effects on the viability of three cancer cell lines: HCT-116 (colon cancer), MCF-7 (breast cancer) and HeLa (cervical cancer), as well as the non-cancerous keratinocyte cell line (HaCaT). […] Analysis was performed using an MTT assay after 72 h of incubation.
(§2) All chemicals, if not stated otherwise, were obtained from Sigma–Aldrich (St. Louis, MO, USA). The HCT-116 cell line was purchased from ATCC (ATCC-No: CCL-247), while the MCF-7, HeLa and HaCaT cell lines were purchased from Cell Lines Services (Eppelheim, Germany). Cells were cultured in Dulbecco’s modified Eagle’s medium (DMEM) supplemented with 10% fetal bovine serum, 2 mM glutamine, 100 units/mL penicillin and 100 µg/mL streptomycin. Cultures were maintained in a humidified atmosphere with 5% carbon dioxide at 37 °C in an incubator (Heraceus, HeraCell).
(§3) Cell viability was examined using the MTT [3-(4,5-dimethylthiazol-2-yl)-2,5-diphenyltetrazolium bromide] assay. Cells were seeded in 96-well plates at a density of 3 × 10^3 cells/well and treated for 72 h with the tested compounds in the concentration range of 1–100 µM. Then, MTT (0.5 mg/mL) was added to the medium and cells were further incubated for 2 h at 37 °C. In the next stage, cells were lysed with DMSO and the absorbance of the formazan solution was measured at 550 nm with a plate reader (1420 multilabel counter, Victor, Jügesheim, Germany). The experiment was performed in triplicate. Values are expressed as the mean ± SD of at least three independent experiments. Cisplatin was used as a positive control.

HeLa (cervical cancer) = experiment: MTT cell viability assay, HeLa; type: cell-based, human; conditions: Homo sapiens, HeLa; MTT assay, 72 h of incubation
Procedure: (§4) Analysis was performed using an MTT assay after 72 h of incubation.
as §2
as §3, with “experiments.” for “experiments. Cisplatin was used as a positive control.”

HCT-116 (colon cancer) = experiment: MTT cell viability assay, HCT-116; type: cell-based, human; conditions: Homo sapiens, HCT-116, 72 h, MTT assay, 72 h of incubation
Procedure: as §4, §2
as §3, with “experiments.” for “experiments. Cisplatin was used as a positive control.”

[1] = system: HaCaT (human keratinocyte cell line); experiment: MTT cell viability assay, non-cancerous HaCaT; type: cell-based; conditions: Homo sapiens, HaCaT, 72 h, 72 h of incubation, non-cancerous keratinocytes
Procedure: as §1, §2, §3

Row | Structure (SMILES) | IC50 (MCF-7 (breast cancer)) [µM] | IC50 (HeLa (cervical cancer)) [µM] | IC50 (HCT-116 (colon cancer)) [µM] | IC50 [1] [µM]
1 | Cc1cc(S(=O)(=O)N=C2NCCN2)c(SCc2nc(N)nc(N(C)C)n2)cc1Cl [Compound 20] | 220 ± 6 | 115 ± 7 | 110 ± 2 | –
2 | Cc1cc(S(=O)(=O)N=C2NCCN2)c(SCc2nc(N)nc(N3CCOCC3)n2)cc1Cl [Compound 21] | 190 ± 2 | 510 ± 5 | 350 ± 7 | –
3 | CC1=NN(c2nc(N)nc(CSc3cc(Cl)c(C)cc3S(=O)(=O)N=C3NCCN3)n2)C(C)(C)C1 [Compound 22] | 130 ± 4 | 110 ± 4 | 140 ± 3 | –
4 | Cc1cc(S(=O)(=O)N=C2NCCN2)c(SCc2nc(N)nc(N3CCc4ccccc43)n2)cc1Cl [Compound 23] | 130 ± 3 | 150 ± 2 | 142 ± 4 | –
5 | Cc1cc(S(=O)(=O)N=C2NCCN2)c(SCc2nc(N)nc(N3CCCc4ccccc43)n2)cc1Cl [Compound 24] | 27 ± 0.3 | 22 ± 0.2 | 20 ± 0.4 | 41 ± 1
6 | Cc1cc(S(=O)(=O)N=C2NCCN2)c(SCc2nc(N)nc(Nc3ccccc3)n2)cc1Cl [Compound 25] | 46 ± 2 | 46 ± 2 | 45 ± 2 | 54 ± 2
7 | Cc1cc(S(=O)(=O)N=C2NCCN2)c(SCc2nc(N)nc(Nc3ccc(F)cc3)n2)cc1Cl [Compound 26] | 33 ± 1 | 34 ± 1 | 33 ± 2 | 45 ± 2
8 | Cc1cc(S(=O)(=O)N=C2NCCN2)c(SCc2nc(N)nc(NCc3ccccc3)n2)cc1Cl [Compound 27] | 44 ± 1 | 74 ± 2 | 39 ± 2 | 75 ± 3
9 | Cc1cc(S(=O)(=O)N=C2NCCN2)c(SCc2nc(N)nc(N(C)c3ccccc3)n2)cc1Cl [Compound 28] | 45 ± 0.5 | 80 ± 1 | 58 ± 0.6 | –
10 | Cc1cc(S(=O)(=O)N=C2NCCN2)c(SCc2nc(N)nc(N(C)c3ccc(Cl)cc3)n2)cc1Cl [Compound 29] | 24 ± 0.2 | 32 ± 0.3 | 25 ± 0.5 | 43 ± 2
11 | Cc1cc(S(=O)(=O)N=C2NCCN2)c(SCc2nc(N)nc(N3CCN(c4ccccc4)CC3)n2)cc1Cl [Compound 31] | – | 16 ± 0.1 | – | 26 ± 1
12 | Cc1cc(S(=O)(=O)N=C2NCCN2)c(SCc2nc(N)nc(N3CCN(c4ccc(F)cc4)CC3)n2)cc1Cl [Compound 32] | 16 ± 0.5 | 14 ± 0.5 | 14 ± 0.5 | 28 ± 1
13 | Cc1cc(S(=O)(=O)N=C2NCCN2)c(SCc2nc(N)nc(N3CCN(c4ccccc4F)CC3)n2)cc1Cl [Compound 33] | 26 ± 1 | 25 ± 1 | 19 ± 0.5 | 41 ± 2
14 | Cc1cc(S(=O)(=O)N=C2NCCN2)c(SCc2nc(N)nc(N3CCN(c4ccc(C(F)(F)F)cc4)CC3)n2)cc1Cl [Compound 34] | 12 ± 0.5 | 24 ± 2 | 18 ± 1 | 41 ± 1
15 | Cc1cc(S(=O)(=O)N=C2NCCN2)c(SCc2nc(N)nc(N3CCN(c4cccc(C(F)(F)F)c4)CC3)n2)cc1Cl [Compound 35] | 16 ± 1 | 16 ± 1 | 14 ± 0.7 | 32 ± 2
16 | Cc1cc(S(=O)(=O)N=C2NCCN2)c(SCc2nc(N)nc(N3CCN(c4ccc(Cl)cc4)CC3)n2)cc1Cl [Compound 36] | 13 ± 0.1 | 12 ± 0.1 | 12 ± 0.1 | 28 ± 1
17 | Cc1cc(S(=O)(=O)N=C2NCCN2)c(SCc2nc(N)nc(N3CCN(c4cccc(Cl)c4)CC3)n2)cc1Cl [Compound 37] | 19 ± 1 | 24 ± 1 | 18 ± 0.5 | 37 ± 2
18 | Cc1cc(S(=O)(=O)N=C2NCCN2)c(SCc2nc(N)nc(N3CCN(c4ccc(Cl)c(Cl)c4)CC3)n2)cc1Cl [Compound 38] | 28 ± 1 | 19 ± 1 | 15 ± 0.5 | 35 ± 1

Source: paper PMC9267128, “New 2-[(4-Amino-6-N-substituted-1,3,5-triazin-2-yl)methylthio]-N-(imidazolidin-2-ylidene)-4-chloro-5-methylbenzenesulfonamide Derivatives, Design, Synthesis and Anticancer Evaluation” (International Journal of Molecular Sciences, 2022)
